Experimental data reported in BindingDB's records for patent US10399948 (Vanderbilt University, 2019).

Target: Metabotropic glutamate receptor 5 (Rattus norvegicus, UniProt P31424)
Assay: mGlu5 Ca2+ Flux Assay
Experimental: HEK 293A cells stably expressing rat mGlu5 were plated in black-walled, clear-bottomed, poly-D-lysine coated 384-well plates in 20 μL of assay medium (DMEM containing 10% dialyzed FBS, 20 mM HEPES, 100 units/mL penicillin/streptomycin plus 250 ng/mL Fungizone, and 1 mM sodium pyruvate) at a density of 20K cells/well. The cells were grown overnight at 37° C. in the presence of 5% CO2. The next day, medium was removed and the cells incubated with 20 μL of […] Fluo-4, AM prepared as a 2.3 mM stock in DMSO and mixed in a 1:1 ratio with 10% (w/v) pluronic acid F-127 and diluted in assay buffer (Hank's balanced salt solution, 20 mM HEPES, and 2.5 mM probenecid) for 45 minutes at 37° C. Dye was removed, 20 μL of assay buffer was added, and the plate was incubated for 5 minutes at room temperature.Ca2+ flux was measured using the Functional Drug Screening System (FDSS7000, Hamamatsu, Japan). After establishment of a fluorescence baseline for about 3 seconds, the compounds of the present invention were added to the cells, and the response in cells was measured. 2.3 minutes later an EC20 concentration of the mGlu5 receptor agonist glutamate was added to the cells, and the response of the cells was measured for 1.9 minutes; an EC80 concentration of agonist was added and readings taken for an additional 1.7 minutes. All test compounds were dissolved and diluted to a concentration of 10 mM in 100% DMSO. Compounds were then serially diluted 1:3 in DMSO into 10 point concentration response curves, transferred to daughter plates, and further diluted into assay buffer to a 2× stock. Calcium fluorescence measures were recorded as fold over basal fluorescence; raw data was then normalized to the maximal response to glutamate. Potentiation of the agonist response of the mGlu5 receptor in the present invention was observed as an increase in response to submaximal concentrations of glutamate in the presence of compound compared to the response to glutamate in the absence of compound. Antagonism of the agonist response of the mGlu5 receptor in the present invention was observed as a decrease in response to nearly maximal concentrations of glutamate in the presence of compound compared to the response to glutamate in the absence of compound.The raw data file containing all time points was used as the data source in the analysis template. This was saved by the FDSS as a tab-delimited text file. Data were normalized using a static ratio function (F/F0) for each measurement of the total 360 values per well divided by each well's initial value. Data were then reduced to peak amplitudes (Max−Initial Min) using a time range that starts approximately 3 seconds prior to the glutamate EC20/EC80 addition and continues for approximately 90-120 seconds. This is sufficient time to capture the peak amplitude of the cellular calcium response. Individual amplitudes were expressed as % EMax by multiplying each amplitude by 100 and then dividing the product by the mean of the amplitudes derived from the glutamate ECMax-treated wells. EC50 values for test compounds were generated by fitting the normalized values versus the log of the test compound concentration (in mol/L) using a 4 parameter logistic equation where none of the parameters were fixed. Each of the three values collected at each concentration of test compound were weighted evenly

Metabotropic glutamate receptor 5, sequence (P31424 whole entry): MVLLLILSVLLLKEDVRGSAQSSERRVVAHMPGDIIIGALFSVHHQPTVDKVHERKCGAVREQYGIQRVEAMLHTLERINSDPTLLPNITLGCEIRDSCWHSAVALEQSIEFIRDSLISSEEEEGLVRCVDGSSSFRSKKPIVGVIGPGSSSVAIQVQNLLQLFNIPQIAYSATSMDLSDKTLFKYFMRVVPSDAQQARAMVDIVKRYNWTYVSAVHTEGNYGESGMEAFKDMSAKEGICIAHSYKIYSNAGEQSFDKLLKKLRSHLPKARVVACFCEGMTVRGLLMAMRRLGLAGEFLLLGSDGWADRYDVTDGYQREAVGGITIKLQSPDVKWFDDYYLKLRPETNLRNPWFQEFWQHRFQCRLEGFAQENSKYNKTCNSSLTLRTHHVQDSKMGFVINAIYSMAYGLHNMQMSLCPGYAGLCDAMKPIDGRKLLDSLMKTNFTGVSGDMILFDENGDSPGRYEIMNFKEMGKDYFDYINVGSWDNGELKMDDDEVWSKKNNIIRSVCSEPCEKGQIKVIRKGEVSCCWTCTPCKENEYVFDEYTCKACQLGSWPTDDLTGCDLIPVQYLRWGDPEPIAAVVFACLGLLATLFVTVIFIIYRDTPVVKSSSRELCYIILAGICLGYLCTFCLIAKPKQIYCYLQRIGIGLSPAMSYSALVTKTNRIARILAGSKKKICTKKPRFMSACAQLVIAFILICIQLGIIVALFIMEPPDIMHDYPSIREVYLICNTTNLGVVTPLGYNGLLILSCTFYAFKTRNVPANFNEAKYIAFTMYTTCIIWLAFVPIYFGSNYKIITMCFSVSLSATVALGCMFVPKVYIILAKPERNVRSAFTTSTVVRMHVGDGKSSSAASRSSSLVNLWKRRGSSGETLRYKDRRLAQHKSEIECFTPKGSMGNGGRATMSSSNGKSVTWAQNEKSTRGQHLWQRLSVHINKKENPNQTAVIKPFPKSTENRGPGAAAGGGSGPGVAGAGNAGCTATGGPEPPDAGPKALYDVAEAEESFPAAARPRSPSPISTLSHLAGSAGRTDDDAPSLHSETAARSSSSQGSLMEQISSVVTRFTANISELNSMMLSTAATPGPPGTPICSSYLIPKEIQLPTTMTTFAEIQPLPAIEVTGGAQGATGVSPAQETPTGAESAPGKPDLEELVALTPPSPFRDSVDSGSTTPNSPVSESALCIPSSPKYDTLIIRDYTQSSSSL

Q: How did the IC50 turn out when O=c1nc(OCCOc2ccccc2)ccn1-c1cccc(F)c1 [US10399948, Compound 14] was run?
A: Its IC50 is 3.54 µM.

Q: Which IC50 does the source give for O=c1nc(OCCOc2ccccc2)ccn1-c1ccc(F)c(F)c1 [US10399948, Compound 15] here?
A: Its IC50 is 0.427 µM.

Q: For O=c1nc(OCCOc2ccccc2)ccn1-c1ccc(F)cc1 [US10399948, Compound 17], which IC50 is on record?
A: Its IC50 is 1.19 µM.

Q: How did the IC50 turn out when N#Cc1cccc(-n2ccc(OCCOc3ccccc3)cc2=O)c1 [US10399948, Compound 22] was run?
A: Its IC50 is 6.02 µM.

Q: How did the IC50 turn out when N#Cc1cc(F)cc(-n2ccc(OCCOc3ccccc3)cc2=O)c1 [US10399948, Compound 23] was run?
A: Its IC50 is 1.31 µM.

Q: Which IC50 does the source give for O=c1cc(OCCOc2cc(Cl)ccn2)ccn1-c1ccc(F)cc1 [US10399948, Compound 49] here?
A: Its IC50 is 8.8 µM.

Q: For O=c1cc(OCCOc2ncccc2Cl)ccn1-c1ccc(F)cc1 [US10399948, Compound 54], which IC50 is on record?
A: The IC50 was 7.82 µM.
